Measured values: PubChem BioAssay AID248 (DTP/NCI, 2004)
Values joined by “and” are separate entries in the source; they are usually repeats but may differ in a detail not shown here. Equal entries are not always repeated. Toxic doses and inconclusive results are not listed.

System: L1210 leukemia ip in BDF1 mice, survival T/C
Assay: NCI In Vivo Anticancer Drug Screen. Data for tumor model L1210 Leukemia (intraperitoneal) in B6D2F1 (BDF1) mice
Details: endpoint: mean survival time, higher = longer survival
In short: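 Ratio derived from survival: compound-dosed mice over vehicle-dosed mice, all bearing a transplantable tumor.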

[1] = dose: 50.0 mg/kg/injection, schedule: Q01DX001 (ip), vehicle: carboxymethylcellulose (CMC)
[2] = dose: 100.0 mg/kg/injection, schedule: Q01DX001 (ip), vehicle: carboxymethylcellulose (CMC)
[3] = dose: 400.0 mg/kg/injection, schedule: Q01DX001 (ip), vehicle: carboxymethylcellulose (CMC)
[4] = dose: 100.0 mg/kg/injection, schedule: Q04DX003 (ip), vehicle: saline with Tween-80
[5] = dose: 200.0 mg/kg/injection, schedule: Q04DX003 (ip), vehicle: saline with Tween-80
[6] = dose: 25.0 mg/kg/injection, schedule: Q01DX009 (ip), vehicle: Klucel (hydroxypropylcellulose) (HPC)
[7] = dose: 50.0 mg/kg/injection, schedule: Q01DX009 (ip), vehicle: Klucel (hydroxypropylcellulose) (HPC)
[8] = dose: 100.0 mg/kg/injection, schedule: Q01DX009 (ip), vehicle: Klucel (hydroxypropylcellulose) (HPC)
[9] = dose: 100.0 mg/kg/injection, schedule: Q04DX003 (ip), vehicle: saline
[10] = dose: 50.0 mg/kg/injection, schedule: Q01DX001 (ip), vehicle: saline
[11] = dose: 100.0 mg/kg/injection, schedule: Q01DX001 (ip), vehicle: saline
[12] = dose: 200.0 mg/kg/injection, schedule: Q01DX001 (ip), vehicle: saline
[13] = dose: 200.0 mg/kg/injection, schedule: Q01DX001 (ip), vehicle: carboxymethylcellulose (CMC)
[14] = dose: 100.0 mg/kg/injection, schedule: Q04DX003 (ip), vehicle: Klucel (hydroxypropylcellulose) (HPC)
[15] = dose: 200.0 mg/kg/injection, schedule: Q01DX009 (ip), vehicle: Klucel (hydroxypropylcellulose) (HPC)
[16] = dose: 200.0 mg/kg/injection, schedule: Q04DX003 (ip), vehicle: Klucel (hydroxypropylcellulose) (HPC)
[17] = dose: 400.0 mg/kg/injection, schedule: Q01DX009 (ip), vehicle: Klucel (hydroxypropylcellulose) (HPC)
[18] = dose: 400.0 mg/kg/injection, schedule: Q04DX003 (ip), vehicle: Klucel (hydroxypropylcellulose) (HPC)
[19] = dose: 400.0 mg/kg/injection, schedule: Q01DX001 (ip), vehicle: saline
[20] = dose: 100.0 mg/kg/injection, schedule: Q01DX009 (ip), vehicle: saline with Tween-80
[21] = dose: 200.0 mg/kg/injection, schedule: Q01DX009 (ip), vehicle: saline with Tween-80

In the case of `Nc1nc(N)nc(CCCCCc2nc(N)nc(N)n2)n1`, the T/C [1] is reported as 93 % of control, the T/C [2] is reported as 93 % of control and the T/C [3] is reported as 95 % of control.

In the case of `CNC(=O)N(CCC#N)C1CCCCC1`, the T/C (dose: 100.0 mg/kg/injection, schedule: Q04DX003 (ip), vehicle: other) is reported as 104 % of control, the T/C (dose: 200.0 mg/kg/injection, schedule: Q04DX003 (ip), vehicle: other) is reported as 106 % of control and the T/C (dose: 400.0 mg/kg/injection, schedule: Q04DX003 (ip), vehicle: other) is reported as 96 % of control.

With `O=NO.[Co].[NH2-].[NH2-].[NH2-].[NH2-].[NH2-]` the T/C (dose: 25.0 mg/kg/injection, schedule: Q04DX003 (ip), vehicle: saline) was 101 % of control.

For `Clc1ccc2nncn2n1`, the T/C (dose: 50.0 mg/kg/injection, schedule: Q04DX003 (ip), vehicle: saline with Tween-80) was 97 % of control, the T/C [4] was 100 % of control and the T/C [5] was 100 % of control.

For `COc1ccc2c(c1OC)C1C3CC=CC3C2C2=[N+]1CCc1cc3c(cc12)OCO3` (centres undefined), the T/C (dose: 1.56 mg/kg/injection, schedule: Q01DX009 (ip), vehicle: saline) was 102 % of control, the T/C (dose: 3.12 mg/kg/injection, schedule: Q01DX009 (ip), vehicle: saline) was 93 % of control and the T/C (dose: 6.25 mg/kg/injection, schedule: Q01DX009 (ip), vehicle: saline) was 98 % of control. The T/C (dose: 12.5 mg/kg/injection, schedule: Q01DX009 (ip), vehicle: saline) was 113 % of control.

`CCCCN(C)N=Nc1ccc(CCCC(=O)OCC)cc1` was tested, and the T/C (dose: 12.5 mg/kg/injection, schedule: Q01DX009 (ip), vehicle: Klucel (hydroxypropylcellulose) (HPC)) was 108 % of control, the T/C (dose: 20.0 mg/kg/injection, schedule: Q01DX009 (ip), vehicle: saline) was 107 % of control and the T/C [6] was 106 % of control. For the same compound, the T/C (dose: 35.0 mg/kg/injection, schedule: Q01DX009 (ip), vehicle: saline) was 121 % of control, the T/C [7] was 110 % of control and the T/C (dose: 50.0 mg/kg/injection, schedule: Q01DX009 (ip), vehicle: saline) was 195 % of control. For the same compound, the T/C (dose: 55.0 mg/kg/injection, schedule: Q01DX009 (ip), vehicle: saline) was 101 % of control and 109 % of control, the T/C (dose: 84.0 mg/kg/injection, schedule: Q01DX009 (ip), vehicle: saline) was 107 % of control and 115 % of control and the T/C [8] was 123 % of control. The T/C (dose: 100.0 mg/kg/injection, schedule: Q01DX009 (ip), vehicle: saline) was 101 % of control, the T/C [9] was 119 % of control and the T/C (dose: 125.0 mg/kg/injection, schedule: Q01DX009 (ip), vehicle: saline) was 114 % of control and 119 % of control.

`CCCNCCCSCc1ccccc1` was tested, and the T/C [10] was 111 % of control and the T/C [11] was 103 % of control.

`N#C/C(C(N)=O)=C1\CCCc2sccc21` was tested, and the T/C [11] was 102 % of control and the T/C [12] was 95 % of control.

`COc1ccc(CN2CCCN(Cc3ccc(OC)cc3OC)C2c2ccc(OC)cc2OC)c(OC)c1` was tested, and the T/C [1] was 93 % of control, the T/C [2] was 104 % of control and the T/C [13] was 93 % of control. The T/C [3] was 98 % of control.

For `COc1ccc2c(c1)CC(OC)c1cc3c(nc1-2)-c1ccccc1CC3` (centres undefined), the T/C [8] was 96 % of control, the T/C [14] was 102 % of control and the T/C [15] was 103 % of control. For the same compound, the T/C [16] was 100 % of control, the T/C [17] was 100 % of control and the T/C [18] was 98 % of control.

With `CC(C)(Br)CNC(=O)c1cccc([N+](=O)[O-])c1` the T/C (dose: 75.0 mg/kg/injection, schedule: Q01DX009 (ip), vehicle: Klucel (hydroxypropylcellulose) (HPC)) was 103 % of control, the T/C (dose: 75.0 mg/kg/injection, schedule: Q04DX003 (ip), vehicle: Klucel (hydroxypropylcellulose) (HPC)) was 95 % of control and the T/C (dose: 150.0 mg/kg/injection, schedule: Q01DX009 (ip), vehicle: Klucel (hydroxypropylcellulose) (HPC)) was 101 % of control. For the same compound, the T/C (dose: 150.0 mg/kg/injection, schedule: Q04DX003 (ip), vehicle: Klucel (hydroxypropylcellulose) (HPC)) was 97 % of control, the T/C (dose: 300.0 mg/kg/injection, schedule: Q01DX009 (ip), vehicle: Klucel (hydroxypropylcellulose) (HPC)) was 86 % of control and the T/C (dose: 300.0 mg/kg/injection, schedule: Q04DX003 (ip), vehicle: Klucel (hydroxypropylcellulose) (HPC)) was 92 % of control.

In the case of `COC(=O)c1ccc(O)c(C(=O)OC)c1`, the T/C [2] is reported as 92 % of control, the T/C [13] is reported as 97 % of control and the T/C [3] is reported as 103 % of control.

For `CCOc1c(Cl)c(Cl)c(Cl)c(Cl)c1Cl`, the T/C [8] was 91 % of control, the T/C [15] was 97 % of control and the T/C [17] was 91 % of control.

For `Cc1cc(N(c2c(Cl)c(Cl)c(NS(=O)(=O)c3ccccc3)c(Cl)c2Cl)S(=O)(=O)c2ccccc2)cc(C)c1N`, the T/C (dose: 100.0 mg/kg/injection, schedule: Q01DX001 (ip), vehicle: Klucel (hydroxypropylcellulose) (HPC)) was 98 % of control, the T/C [8] was 100 % of control and the T/C (dose: 200.0 mg/kg/injection, schedule: Q01DX001 (ip), vehicle: Klucel (hydroxypropylcellulose) (HPC)) was 95 % of control. For the same compound, the T/C [15] was 95 % of control, the T/C (dose: 400.0 mg/kg/injection, schedule: Q01DX001 (ip), vehicle: Klucel (hydroxypropylcellulose) (HPC)) was 90 % of control and the T/C [17] was 94 % of control.

`O=C(NC1CCCC2CCCCC21)OCCC1CCCCC1` (centres undefined) was tested, and the T/C [11] was 95 % of control, the T/C [12] was 103 % of control and the T/C [19] was 95 % of control.

In the case of `Cc1sc(=S)n(CC(=O)O)c1C`, the T/C [20] is reported as 93 % of control, the T/C [21] is reported as 93 % of control and the T/C (dose: 400.0 mg/kg/injection, schedule: Q01DX009 (ip), vehicle: saline with Tween-80) is reported as 92 % of control.

For `CCCCCCCCCCCCNCCC#N`, the T/C (dose: 100.0 mg/kg/injection, schedule: Q04DX002 (sc), vehicle: olive oil, sesame oil, peanut oil) was 100 % of control, the T/C (dose: 200.0 mg/kg/injection, schedule: Q04DX002 (sc), vehicle: olive oil, sesame oil, peanut oil) was 98 % of control and the T/C (dose: 400.0 mg/kg/injection, schedule: Q04DX002 (sc), vehicle: olive oil, sesame oil, peanut oil) was 98 % of control.

For `N#Cc1cc(C(Cl)(Cl)Cl)ccc1C(Cl)(Cl)Cl`, the T/C [14] was 97 % of control, the T/C [16] was 95 % of control and the T/C [18] was 90 % of control.

In the case of `Cc1cc(C)c(C)c(OC(=O)Nc2ccc(Cl)cc2C(F)(F)F)c1`, the T/C (dose: 50.0 mg/kg/injection, schedule: Q01DX009 (ip), vehicle: saline with Tween-80) is reported as 92 % of control, the T/C [20] is reported as 103 % of control and the T/C [21] is reported as 106 % of control.

With `CCOC(=O)C(C)(C)CCl` the T/C [8] was 100 % of control, the T/C [15] was 94 % of control and the T/C [17] was 103 % of control.

With `CC1NC(=O)COC1c1ccccc1` (centres undefined) the T/C [6] was 101 % of control, the T/C [7] was 95 % of control and the T/C [8] was 101 % of control. The T/C [15] was 96 % of control.

In the case of `Cc1cccc2ccc3ccc4ccccc4c3c12`, the T/C [4] is reported as 96 % of control, the T/C [5] is reported as 89 % of control and the T/C (dose: 400.0 mg/kg/injection, schedule: Q04DX003 (ip), vehicle: saline with Tween-80) is reported as 92 % of control.

With `S=P1(c2ccccc2)Nc2cc(Cl)ccc2S1` (centres undefined) the T/C [10] was 105 % of control and the T/C [11] was 106 % of control.

For `CCC(CO)NCc1cc(=O)[nH]c(=O)[nH]1` (centres undefined), the T/C [9] was 96 % of control, the T/C (dose: 200.0 mg/kg/injection, schedule: Q04DX003 (ip), vehicle: saline) was 96 % of control and the T/C (dose: 400.0 mg/kg/injection, schedule: Q04DX003 (ip), vehicle: saline) was 102 % of control.

`CCn1c(C)nc2cc(N=Cc3ccc(N(CCCl)CCCl)cc3F)ccc21` was tested, and the T/C (dose: 100.0 mg/kg/injection, schedule: Q04DX002 (ip), vehicle: Klucel (hydroxypropylcellulose) (HPC)) was 95 % of control, the T/C (dose: 200.0 mg/kg/injection, schedule: Q04DX002 (ip), vehicle: Klucel (hydroxypropylcellulose) (HPC)) was 98 % of control and the T/C (dose: 400.0 mg/kg/injection, schedule: Q04DX002 (ip), vehicle: Klucel (hydroxypropylcellulose) (HPC)) was 91 % of control.

For `O=C(CN1C(=O)CCC1=O)Oc1ccc([N+](=O)[O-])cc1`, the T/C [11] was 91 % of control, the T/C [12] was 98 % of control and the T/C [19] was 102 % of control.

In the case of `O=C(NCCCN1CC1)C(=O)NNc1ccccc1`, the T/C [14] is reported as 102 % of control and the T/C [16] is reported as 93 % of control.

In the case of `CSc1nc(N)n(C)n1`, the T/C (dose: 100.0 mg/kg/injection, schedule: Q04DX002 (ip), vehicle: saline) is reported as 123 % of control, the T/C (dose: 200.0 mg/kg/injection, schedule: Q04DX002 (ip), vehicle: saline) is reported as 104 % of control and the T/C (dose: 400.0 mg/kg/injection, schedule: Q04DX002 (ip), vehicle: saline) is reported as 93 % of control.
